Laboratory results reported in patent US20170298360A1, “LATS AND BREAST CANCER” (FRIEDRICH MIESCHER INSTITUTE FOR BIOMEDICAL RESEARCH, priority 2014, published 2017).
Peptide text beside a SMILES is read from it. * marks the point of attachment. Cbz = O=C(OCc1ccccc1)*

Experiments:
[1] = tested on: ERα; experiment: LATS1-induced ERα degradation in LATS1 overexpressing cells (immunoblot); assay type: cell-based, human
Protocol: Cell lines and in vitro experiments SUM159PT human breast cancer cells were from Asterand and propagated as recommended. All the other cell lines were from, and were cultured according to the protocol of ATCC. MCF10A cells were maintained as previously described (Bentires-Alj et al., 2006). For most experiments, MCF10A, SUM159 and MDA 436 cells were cultured in M5 medium and the medium was refreshed or replaced every 3 days. Antibody blocking experiments were performed by adding anti-AREG (R&D, MAB262, 0.5-10 μg/ml) or a mouse IgG antibody (R&D, 10 or 2.5 μg/ml) to the medium prior to seeding of the cells or transferring the conditioned medium. Cell viability was measured using the Cell Proliferation Reagent WST-1 (Roche). Colony formation assays were performed by seeding 500-1000 cells/well in 6-well plates. Cells were allowed to adhere overnight before treatment with inhibitors or solvent as indicated. Colonies were stained after 6-10 days with 0.2% crystal violet in PBS/4% formalin. Colony area was quantified using the Odyssey scanner and software (LICOR) or Image-J (Fiji 64 bit). For sphere formation assays, 4000 (passage 1) or 1000 (subsequent passages) MCF10A cells/ml were grown in ultra-low attachment (ULA) dishes (Corning) for 5-7 days. […]

[2] = tested on: SUM159 and MDA 436; experiment: Colony formation of triple-negative breast cancer lines with or without LATS; assay type: cell-based, human; settings: SUM159 and MDA 436 in M5 medium
Excerpt: (§1) Lentiviral vectors, lentivirus production and infection For LATS knockdown, the following TRC pLKO clones (Sigma) were used: LATS_1=NM_004690.x-2666s1c1, LATS_2=NM_004690.x-3614s1c1, LATS_3=NM_014572.x-2894s1c1 and the MISSION® Non-Target shRNA Control Vector SHC002. For the competition experiment, GFP and ERα expressing lentiviral vectors were cloned as described in (Duss, BCR, 2007). Lentiviruses were produced by PEI transfection of 293 T cells as described (Britschgi et al., 2012; Duss et al., 2014). The titer of each lentiviral batch was determined on PHBECs or MCF10A cells. Cell lines were infected o/n in the presence of hexamethrine bromide (8 μg/mL). Infections were performed at a multiplicity of infection of 5-20 viral particles per cell. Selection with 1.25-1.5 μg/ml puromycin was applied 48 h after infection.
(§2) Cell lines and in vitro experiments SUM159PT human breast cancer cells were from Asterand and propagated as recommended. All the other cell lines were from, and were cultured according to the protocol of ATCC. MCF10A cells were maintained as previously described (Bentires-Alj et al., 2006). […] Cell viability was measured using the Cell Proliferation Reagent WST-1 (Roche). […] Colony area was quantified using the Odyssey scanner and software (LICOR) or Image-J (Fiji 64 bit). […]

[3] = tested on: SUM159 shLATS xenografts; experiment: Orthotopic SUM159 shNT / shLATS xenograft tumor growth; assay type: in vivo, mouse; settings: tumor-bearing mice, tamoxifen citrate 3 mg/kg, intraperitoneal, n=5, **P<0.01 vs shNT
Protocol: Animal experiments SCID/beige and SCID/NOD (Jackson Labs) were used in compliance with the Swiss laws for animal welfare and animal protocols were approved by the Swiss Cantonal Veterinary Office of Basel. For orthotopic engraftment of breast cancer cell lines, 2×10^6 T47D or 1×10^6 SUM159 cells were suspended in a 100 μl mixture of Basement Membrane Matrix Phenol Red-free (BD Biosciences) and PBS 1:1 and injected into the mouse mammary gland 4. […] Tumor-bearing mice were randomized based on tumor volume prior to the initiation of treatment, which started when average tumor volume was at least 100 mm^3. Fulvestrant and Tamoxifen hydrate dissolved in sunflower seed oil (all from Sigma) were injected intraperitoneally as indicated. Tumors were measured every 3 to 4 days with vernier calipers, and tumor volumes were calculated by the formula 0.5×(larger diameter)×(smaller diameter)^2.
For in vivo studies, fulvestrant and tamoxifen were dissolved in sunflower seed oil (Sigma) and injected intraperitoneal as indicated.

[4] = tested on: T47D and MCF7 cells; experiment: Cell viability (WST-1) of ER-positive breast cancer cells after downregulation of LATS; assay type: cell-based, human; settings: LATS downregulated vs control
Excerpt: as §1, §2

[5] = molecular target: T1, ERα (Homo sapiens, UniProt P03372); experiment: ERα degradation in luminal breast cancer cells lacking LATS; assay type: cell-based; settings: cancer cells lacking LATS grown as xenograft
T1 sequence (P03372 1-595): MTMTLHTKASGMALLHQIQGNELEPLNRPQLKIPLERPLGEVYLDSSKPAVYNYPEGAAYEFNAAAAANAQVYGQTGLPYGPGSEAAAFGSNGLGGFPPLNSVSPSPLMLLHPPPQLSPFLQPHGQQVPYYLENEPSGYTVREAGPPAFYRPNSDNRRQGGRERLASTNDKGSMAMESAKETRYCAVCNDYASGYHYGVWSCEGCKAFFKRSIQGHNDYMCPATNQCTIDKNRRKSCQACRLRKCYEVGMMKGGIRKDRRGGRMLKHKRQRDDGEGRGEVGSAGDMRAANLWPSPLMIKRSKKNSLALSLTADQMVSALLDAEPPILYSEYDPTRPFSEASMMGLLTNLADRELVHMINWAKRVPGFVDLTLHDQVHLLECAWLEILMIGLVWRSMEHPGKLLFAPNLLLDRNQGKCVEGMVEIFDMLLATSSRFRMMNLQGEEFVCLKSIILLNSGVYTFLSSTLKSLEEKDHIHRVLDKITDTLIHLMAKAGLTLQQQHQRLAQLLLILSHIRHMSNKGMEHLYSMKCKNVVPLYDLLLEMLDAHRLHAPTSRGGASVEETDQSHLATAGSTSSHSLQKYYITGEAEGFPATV
Protocol: Immunoblotting and immunoprecipitation Cells for immunoblotting and ELISA were lysed with RIPA buffer (50 mM Tris-HCl pH 8, 150 mM NACl, 1% NP-40, 0.5% sodium deoxycholate, 0.1% SDS), supplemented with 1× protease inhibitor cocktail (Complete Mini, Roche), 0.2 mMol/L sodium orthovanadate, 20 mM sodium fluoride and 1 mM phenylmethylsulfonyl fluoride. […]

[6] = tested on: T47D; experiment: Orthotopic xenograft tumor growth of ER-positive breast cancer cells lacking LATS; assay type: in vivo, mouse; settings: cancer cells lacking LATS grown as xenograft, intraperitoneal
Protocol: Animal experiments SCID/beige and SCID/NOD (Jackson Labs) were used in compliance with the Swiss laws for animal welfare and animal protocols were approved by the Swiss Cantonal Veterinary Office of Basel. For orthotopic engraftment of breast cancer cell lines, 2×10^6 T47D or 1×10^6 SUM159 cells were suspended in a 100 μl mixture of Basement Membrane Matrix Phenol Red-free (BD Biosciences) and PBS 1:1 and injected into the mouse mammary gland 4. For the estrogen-dependent T47D cell line, mice received estrogen-containing drinking water 2 days prior to injection. Tumor-bearing mice were randomized based on tumor volume prior to the initiation of treatment, which started when average tumor volume was at least 100 mm^3. Fulvestrant and Tamoxifen hydrate dissolved in sunflower seed oil (all from Sigma) were injected intraperitoneally as indicated. Tumors were measured every 3 to 4 days with vernier calipers, and tumor volumes were calculated by the formula 0.5×(larger diameter)×(smaller diameter)^2.
Compounds and formulations Fulvestrant, 4-Hydroxytamoxifen (4-OHT), Tamoxifen (OHT), Cycloheximide and MG132 were from Sigma. Fulvestrant and MG-132 were prepared as 10 mMol/L stock solution in DMSO, 4-OHT and Cycloheximide as 10 mMol/L in ethanol and all stock solutions were stored at −20° C. […]

Row | degradation of ERα [5] | Structure (SMILES) | LATS1-induced degradation of ERα [1] | colony formation in cells lacking LATS compared to controls [2] | tumor growth of SUM159 shLATS xenografts [3] | tumor growth of SUM159 shLATS xenografts ([3]; listed as tamoxifen citrate) | effect of LATS downregulation on sensitivity / viability of treated cells [4] | reduction of tumor growth [6]
1 |  | CC(C)C[C@@H](C=O)NC(=O)[C@H](CC(C)C)NC(=O)[C@H](CC(C)C)NC(=O)OCc1ccccc1 [MG132] (Cbz-Leu-Leu-Leu-aldehyde) | prevented |  |  |  |  | 
2 |  | CC/C(=C(\c1ccccc1)c1ccc(OCCN(C)C)cc1)c1ccccc1 [tamoxifen, Tamoxifen] |  | reduced colony formation | stopped growing | susceptible | no effect | 
3 | failed to degrade ERα | C[C@]12CC[C@@H]3c4ccc(O)cc4C[C@@H](CCCCCCCCC[S+]([O-])CCCC(F)(F)C(F)(F)F)[C@H]3[C@@H]1CC[C@@H]2O (stereo partly drawn) [fulvestrant, Fulvestrant] |  | no effect |  |  | reduced sensitivity | failed
